Measurements: ChEMBL document CHEMBL4622970, “Design, Synthesis, and Evaluation of New Quinazolinone Derivatives that Inhibit Bloom Syndrome Protein (BLM) Helicase, Trigger DNA Damage at the Telomere Region, and Synergize with PARP Inhibitors” (J Med Chem, 2020)
Calls of active or inactive are those of the source. No cut-off for these calls is given here.

Tests used:
[1] = target: T1, RecQ-like DNA helicase BLM (Homo sapiens, UniProt P54132); assay: Inhibition of His-tagged BLM (642 to 1296 residues) (unknown origin) expressed in Escherichia coli BL21 (DE3) cells assessed as reduction in DNA unwinding activity using 5'-biotin-labeled forked DNA as substrate preincubated for 1 hr followed by substrate addition and measured after 1 hr by electrophoretic mobility shift assay
T1 sequence (P54132 whole entry, the tested form may be a part): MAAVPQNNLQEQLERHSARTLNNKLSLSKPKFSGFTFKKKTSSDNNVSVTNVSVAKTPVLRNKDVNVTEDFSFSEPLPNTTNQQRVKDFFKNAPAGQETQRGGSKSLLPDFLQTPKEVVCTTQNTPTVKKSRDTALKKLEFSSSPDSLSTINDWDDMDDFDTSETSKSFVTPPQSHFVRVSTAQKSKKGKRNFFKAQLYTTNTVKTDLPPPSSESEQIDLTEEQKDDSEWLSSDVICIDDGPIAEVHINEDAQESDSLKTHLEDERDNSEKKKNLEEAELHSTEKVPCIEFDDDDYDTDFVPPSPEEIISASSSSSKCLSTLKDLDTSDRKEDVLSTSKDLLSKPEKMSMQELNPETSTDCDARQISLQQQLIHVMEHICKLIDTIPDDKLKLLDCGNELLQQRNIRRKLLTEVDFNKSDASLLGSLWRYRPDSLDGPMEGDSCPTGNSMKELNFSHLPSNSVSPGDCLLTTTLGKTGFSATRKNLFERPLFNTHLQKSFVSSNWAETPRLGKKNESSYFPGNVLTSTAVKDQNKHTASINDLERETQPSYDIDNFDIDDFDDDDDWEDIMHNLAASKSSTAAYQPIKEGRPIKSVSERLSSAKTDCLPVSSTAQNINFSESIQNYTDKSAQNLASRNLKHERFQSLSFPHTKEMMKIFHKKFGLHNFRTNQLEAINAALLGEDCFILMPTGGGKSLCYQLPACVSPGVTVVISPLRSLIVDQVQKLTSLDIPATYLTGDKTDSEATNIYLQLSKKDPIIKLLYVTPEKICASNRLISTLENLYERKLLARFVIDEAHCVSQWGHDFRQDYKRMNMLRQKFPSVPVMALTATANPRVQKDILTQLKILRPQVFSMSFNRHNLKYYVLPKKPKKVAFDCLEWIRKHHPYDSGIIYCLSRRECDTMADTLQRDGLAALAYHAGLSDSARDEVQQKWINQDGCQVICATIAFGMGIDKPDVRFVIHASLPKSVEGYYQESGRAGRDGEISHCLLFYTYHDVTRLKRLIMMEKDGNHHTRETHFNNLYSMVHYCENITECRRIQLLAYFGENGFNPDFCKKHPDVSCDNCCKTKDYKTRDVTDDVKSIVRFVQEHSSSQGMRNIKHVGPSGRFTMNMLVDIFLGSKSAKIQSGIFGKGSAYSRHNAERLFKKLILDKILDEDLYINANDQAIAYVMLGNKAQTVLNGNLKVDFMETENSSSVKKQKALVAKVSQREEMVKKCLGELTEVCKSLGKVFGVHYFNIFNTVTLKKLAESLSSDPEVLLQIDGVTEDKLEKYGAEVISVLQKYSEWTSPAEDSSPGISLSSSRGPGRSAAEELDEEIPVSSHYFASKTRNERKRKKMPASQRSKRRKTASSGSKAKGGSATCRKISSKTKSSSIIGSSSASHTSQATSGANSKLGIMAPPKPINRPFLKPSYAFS

[2] = target: T1, RecQ-like DNA helicase BLM; assay: Binding affinity to His-tagged BLM (642 to 1296 residues) (unknown origin) expressed in Escherichia coli BL21 (DE3) cells assessed as inhibition of protein interaction with 5'-biotin-labeled forked DNA measured after 1 hr by ELISA
[3] = target: T1, RecQ-like DNA helicase BLM; assay: Binding affinity to wild-type His-tagged BLM (642 to 1296 residues) (unknown origin) expressed in Escherichia coli BL21 (DE3) cells by isothermal calorimetric titration assay
[4] = target: RecQ-like DNA helicase BLM (Homo sapiens, UniProt P54132, H996A); assay: Binding affinity to His-tagged BLM H996A mutant (unknown origin) expressed in Escherichia coli BL21 (DE3) cells by isothermal calorimetric titration assay
RecQ-like DNA helicase BLM (Homo sapiens, UniProt P54132, H996A), sequence (P54132 whole entry H996A): as the sequence (P54132 whole entry, the tested form may be a part) above, with H996A counted along it

[5] = system: HCT-116; assay: Cytotoxicity against human HCT116 cells by MTT assay; type: functional, cell-based
[6] = target: RecQ-like DNA helicase BLM (Homo sapiens, UniProt P54132, I1168A); assay: Binding affinity to His-tagged BLM I1168A mutant (unknown origin) expressed in Escherichia coli BL21 (DE3) cells by isothermal calorimetric titration assay
RecQ-like DNA helicase BLM (Homo sapiens, UniProt P54132, I1168A), sequence (P54132 whole entry I1168A): as the sequence (P54132 whole entry, the tested form may be a part) above, with I1168A counted along it

[7] = target: T1, RecQ-like DNA helicase BLM; assay: Inhibition of BLM in human HCT116 cells assessed as down regulation of HRR level at 0.5 uM measured after 24 hrs by luciferase reporter gene assay; type: cell-based; details: HCT-116
[8] = target: T1, RecQ-like DNA helicase BLM; assay: Inhibition of BLM in human HCT116 cells assessed as increase in gamma-H2AX level at 2 uM measured after 24 hrs by Western blot analysis; type: cell-based; details: HCT-116
[9] = target: T1, RecQ-like DNA helicase BLM; assay: Binding affinity to BLM in human HCT116 cells cotransfected with DSB model and I-SceI plasmid assessed as reduction in recruitment of protein to DSB site in DNA at 2 uM measured after 24 hrs by chromatin immunoprecipitation assay; type: cell-based; details: HCT-116
[10] = target: T1, RecQ-like DNA helicase BLM; assay: Binding affinity to BLM in human HCT116 cells cotransfected with DSB model and I-SceI plasmid assessed as reduction in recruitment of protein to DNA region distant from DSB site at 2 uM measured after 24 hrs by chromatin immunoprecipitation assay; type: cell-based; details: HCT-116
[11] = target: T1, RecQ-like DNA helicase BLM; assay: Inhibition of BLM in human HCT116 cells assessed as potentiation of niraparib-induced cytotoxicity at 1 to 2 uM measured after 48 hrs by MTT assay relative to niraparib alone; type: cell-based; details: HCT-116
[12] = target: T1, RecQ-like DNA helicase BLM; assay: Inhibition of BLM in human HCT116 cells assessed as potentiation of olaparib-induced cytotoxicity at 1 to 2 uM measured after 48 hrs by MTT assay relative to olaparib alone; type: cell-based; details: HCT-116
[13] = target: T1, RecQ-like DNA helicase BLM; assay: Inhibition of BLM in human HCT116 cells assessed as potentiation of niraparib-induced cytotoxicity by measuring combination index at 1 to 2 uM measured after 48 hrs by MTT assay; type: cell-based; details: HCT-116
[14] = target: T1, RecQ-like DNA helicase BLM; assay: Inhibition of BLM in human HCT116 cells assessed as potentiation of olaparib-induced cytotoxicity by measuring combination index at 1 to 2 uM measured after 48 hrs by MTT assay; type: cell-based; details: HCT-116
[15] = target: T1, RecQ-like DNA helicase BLM; assay: Inhibition of BLM in human HCT116 cells assessed as potentiation of cisplatin-induced cytotoxicity by measuring combination index at 1 to 2 uM measured after 48 hrs by MTT assay; type: cell-based; details: HCT-116
[16] = target: T1, RecQ-like DNA helicase BLM; assay: Inhibition of BLM in human HCT116 cells assessed as increase in gamma-H2AX foci at 1 to 4 uM measured after 24 hrs by DAPI staining based immunofluorescence assay; type: cell-based; details: HCT-116
[17] = target: T1, RecQ-like DNA helicase BLM; assay: Inhibition of BLM in human HCT116 cells assessed as increase in gamma-H2AX-TRF2 foci colocalization mediated telomere dysfunction-induced foci formation measured after 24 hrs by DAPI staining based immunofluorescence assay; type: cell-based; details: HCT-116
[18] = target: T1, RecQ-like DNA helicase BLM; assay: Inhibition of BLM in human HCT116 cells assessed as increase in gamma-H2AX-TRF2 foci colocalization mediated telomere dysfunction-induced foci formation at 1 to 4 uM measured after 24 hrs by DAPI staining based immunofluorescence assay relative to total gamma-H2AX foci; type: cell-based; details: HCT-116
[19] = target: T1, RecQ-like DNA helicase BLM; assay: Inhibition of BLM in human HCT116 cells assessed as increase in gamma-H2AX-TRF2 foci colocalization mediated telomere dysfunction-induced foci formation at 1 uM measured after 24 hrs in presence of […] inhibitor niraparib by DAPI staining based immunofluorescence assay; type: cell-based; details: HCT-116
[20] = target: T1, RecQ-like DNA helicase BLM; assay: Inhibition of BLM in human HCT116 cells assessed as potentiation of BIBR1532-induced cytotoxicity by measuring combination index at 1 to 2 uM measured after 48 hrs by MTT assay; type: cell-based; details: HCT-116
[21] = target: T1, RecQ-like DNA helicase BLM; assay: Inhibition of BLM in human HCT116 cells assessed as upregulation of ATM phosphorylation up to 4 uM by Western blot analysis; type: cell-based; details: HCT-116
[22] = target: T1, RecQ-like DNA helicase BLM; assay: Inhibition of BLM in human HCT116 cells assessed as upregulation of ATR phosphorylation up to 4 uM by Western blot analysis; type: cell-based; details: HCT-116
[23] = target: T1, RecQ-like DNA helicase BLM; assay: Inhibition of BLM in human HCT116 cells assessed as upregulation of CHK1 phosphorylation by Western blot analysis; type: cell-based; details: HCT-116
[24] = target: T1, RecQ-like DNA helicase BLM; assay: Inhibition of BLM in human HCT116 cells assessed as upregulation of CHK2 phosphorylation by Western blot analysis; type: cell-based; details: HCT-116
[25] = target: T1, RecQ-like DNA helicase BLM; assay: Inhibition of BLM in human HCT116 cells assessed as induction of telomere end loss at 4 uM by fluorescent in situ hybridization; type: cell-based; details: HCT-116
[26] = system: HCT-116; assay: Induction of apoptosis in human HCT116 cells measured after 48 hrs by Annexin V-FITC/propidium iodide staining based flow cytometry; type: functional, cell-based
[27] = system: HCT-116; assay: Induction of apoptosis in human HCT116 cells assessed as apoptotic cell population at 4 uM measured after 48 hrs by Annexin V-FITC/propidium iodide staining based flow cytometry (reference value: 17.4%); type: functional
[28] = system: HCT-116; assay: Induction of apoptosis in human HCT116 cells assessed as upregulation of cleaved caspase-3 expression up to 4 uM measured after 48 hrs by Western blot analysis; type: functional, cell-based
[29] = system: HCT-116; assay: Induction of apoptosis in human HCT116 cells assessed as upregulation of cleaved caspase-7 expression up to 4 uM measured after 48 hrs by Western blot analysis; type: functional, cell-based
[30] = system: HCT-116; assay: Induction of apoptosis in human HCT116 cells assessed as upregulation of cleaved PARP expression up to 4 uM measured after 48 hrs by Western blot analysis; type: functional, cell-based
[31] = system: HCT-116; assay: Antiproliferative activity against wild-type human HCT116 cells assessed as inhibition of cell proliferation by real-time cellular analysis; type: functional, cell-based
[32] = system: HCT-116; assay: Antiproliferative activity against human HCT116 cells harboring siBLM assessed as inhibition of cell proliferation at 1 to 2 uM by real-time cellular analysis; type: functional, cell-based

CCN(CC)CCCNc1cc2nc(/C=C/c3ccc(C(C)C)cc3)n(CCCl)c(=O)c2cc1F
IC50 [1]: 0.8 µM
IC50 [2]: 8.7 µM
Kd [3]: 0.76 µM
Kd [4]: 1.4 µM
Activity [5]: Active
Kd [6]: 6.54 µM
inhibition [7]: Active
inhibition [8]: Active
Activity [9]: Active
Activity [10]: Active
fold change (FC) [11]: 2 to 4
fold change (FC) [12]: 2 to 4
CI [13]: 0.4 to 0.8
CI [14]: 0.4 to 0.8
CI [15]: 0.6 to 0.8
inhibition [16]: Active
inhibition [17]: Dose-dependent effect
inhibition [18]: > 70%
inhibition [19]: Active
CI [20]: 0.5 to 0.8
inhibition [21]: Active
inhibition [22]: Active
inhibition [23]: Dose-dependent effect
inhibition [24]: Dose-dependent effect
inhibition [25]: Active
Activity [26]: Dose-dependent effect
Activity [27]: 76%
Activity [28]: Active
Activity [29]: Active
Activity [30]: Active
inhibition [31]: Dose-dependent effect
inhibition [32]: inactive
